Experimental data from US20260206755A1, “COMPOUNDS AND COMPOSITIONS HAVING KNOCK-DOWN OR BLOOD FEED INHIBITION ACTIVITY AGAINST INSECT PESTS” (priority 2017, published 2026).
Read-outs that look alike come from different tables or passages of the source.

Test system: Anopheles stephensi
Assay: Anopheles stephensi treated well plate contact test: knockdown and mortality
Format: in vivo
Details: for mortality at 0.2 ppm / pest or weed control at 0.2 ppm / mortality at 2 ppm / pest or weed control at 2 ppm / mortality at 20 ppm / pest or weed control at 20 ppm / mortality at 200 ppm / pest or weed control at 200 ppm / mortality at 0.02 ppm / pest or weed control at 0.02 ppm: Anopheles stephensi; for pest or weed control at 0.2 ppm / pest or weed control at 2 ppm / pest or weed control at 20 ppm / pest or weed control at 200 ppm / pest or weed control at 0.02 ppm: read-out: Knock Down, without TFNA-AM; for pest or weed control at 0.02 ppm: test compound 0.02 ppm
Procedure, shortened: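 Well surfaces coated with ethanol solution of compound at a defined concentration, alone or with 2 ppm TFNA-AM, then dried. Five non-blood-fed 2–5-day-old adult females per well, fed 10% sucrose; knockdown scored at 1 hour, mortality at 24 and 48 hours, replicate means reported.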

[1] = test compound 0.2 ppm plus 2 ppm TFNA-AM, after 24 hours
[2] = test compound 0.2 ppm plus 2 ppm TFNA-AM, after 48 hours
[3] = test compound 0.2 ppm plus 2 ppm TFNA-AM, knockdown after 1 hour
[4] = test compound 0.2 ppm, without TFNA-AM, after 24 hours
[5] = test compound 0.2 ppm, without TFNA-AM, after 48 hours
[6] = test compound 0.2 ppm, without TFNA-AM, knockdown after 1 hour
[7] = test compound 2 ppm plus 2 ppm TFNA-AM, after 24 hours
[8] = test compound 2 ppm plus 2 ppm TFNA-AM, after 48 hours
[9] = test compound 2 ppm plus 2 ppm TFNA-AM, knockdown after 1 hour
[10] = test compound 2 ppm, without TFNA-AM, after 24 hours
[11] = test compound 2 ppm, without TFNA-AM, after 48 hours
[12] = test compound 2 ppm, without TFNA-AM, knockdown after 1 hour
[13] = test compound 20 ppm plus 2 ppm TFNA-AM, after 24 hours
[14] = test compound 20 ppm plus 2 ppm TFNA-AM, after 48 hours
[15] = test compound 20 ppm plus 2 ppm TFNA-AM, knockdown after 1 hour
[16] = test compound 20 ppm, without TFNA-AM, after 24 hours
[17] = test compound 20 ppm, without TFNA-AM, after 48 hours
[18] = test compound 20 ppm, without TFNA-AM, knockdown after 1 hour
[19] = test compound 200 ppm plus 2 ppm TFNA-AM, after 24 hours
[20] = test compound 200 ppm plus 2 ppm TFNA-AM, after 48 hours
[21] = test compound 200 ppm plus 2 ppm TFNA-AM, knockdown after 1 hour
[22] = test compound 200 ppm, without TFNA-AM, after 24 hours
[23] = test compound 200 ppm, without TFNA-AM, after 48 hours
[24] = test compound 200 ppm, without TFNA-AM, knockdown after 1 hour, adult females
[25] = test compound 0.2 ppm, without TFNA-AM, after 24 hours, read-out: mortality % 24, without TFNA-AM
[26] = test compound 0.2 ppm, without TFNA-AM, after 48 hours, read-out: mortality % 48, without TFNA-AM
[27] = test compound 2 ppm, without TFNA-AM, after 24 hours, read-out: mortality % 24, without TFNA-AM
[28] = test compound 2 ppm, without TFNA-AM, after 48 hours, read-out: mortality % 48, without TFNA-AM
[29] = test compound 20 ppm, without TFNA-AM, after 24 hours, read-out: mortality % 24, without TFNA-AM
[30] = test compound 20 ppm, without TFNA-AM, after 48 hours, read-out: mortality % 48, without TFNA-AM
[31] = test compound 200 ppm, without TFNA-AM, after 24 hours, read-out: mortality % 24, without TFNA-AM
[32] = test compound 200 ppm, without TFNA-AM, after 48 hours, read-out: mortality % 48, without TFNA-AM
[33] = 24 h, read-out: mortality % 24, without TFNA-AM
[34] = 48 h, read-out: mortality % 48, without TFNA-AM
[35] = without TFNA-AM, knockdown after 1 hour
[36] = test compound 0.02 ppm plus 2 ppm TFNA-AM, after 24 hours
[37] = test compound 0.02 ppm plus 2 ppm TFNA-AM, after 48 hours
[38] = test compound 0.02 ppm plus 2 ppm TFNA-AM, knockdown after 1 hour

Structure (SMILES)	mortality % 24, with TFNA-AM [1] [%]	mortality % 48, with TFNA-AM [2] [%]	Knock Down, with TFNA-AM [3] [%]	mortality % 24, with TFNA-AM [7] [%]	mortality % 48, with TFNA-AM [8] [%]	Knock Down, with TFNA-AM [9] [%]	mortality % 24, with TFNA-AM [13] [%]	mortality % 48, with TFNA-AM [14] [%]	Knock Down, with TFNA-AM [15] [%]	mortality % 24, with TFNA-AM [19] [%]	mortality % 48, with TFNA-AM [20] [%]	Knock Down, with TFNA-AM [21] [%]	mortality at 0.2 ppm [25] [%]	mortality at 0.2 ppm [26] [%]	pest or weed control at 0.2 ppm [6] [%]	mortality at 2 ppm [27] [%]	mortality at 2 ppm [28] [%]	pest or weed control at 2 ppm [12] [%]	mortality at 20 ppm [29] [%]	pest or weed control at 20 ppm [18] [%]	further results
O=C1C=C(N(Cc2ccc(Cl)nc2)CC(F)F)CO1 [Flupyradifurone]	10	0	100	20	20	100	50	60	100	70	90	100	–	–	–	–	–	–	–	–	mortality % 24, without TFNA-AM [4]: 0%; mortality % 48, without TFNA-AM [5]: 0%; Knock Down, without TFNA-AM [6]: 0%; mortality % 24, without TFNA-AM [10]: 0%; mortality % 48, without TFNA-AM [11]: 0%; Knock Down, without TFNA-AM [12]: 0%; mortality % 24, without TFNA-AM [16]: 0%; mortality % 48, without TFNA-AM [17]: 10%; Knock Down, without TFNA-AM [18]: 0%; mortality % 24, without TFNA-AM [22]: 20%; mortality % 48, without TFNA-AM [23]: 30%; Knock Down, without TFNA-AM [24]: 0%
O=[N+]([O-])NC1=NCCN1Cc1ccc(Cl)nc1 [Imidacloprid]	–	0	100	100	100	100	100	100	100	100	100	100	0	0	0	20	20	0	20	0	mortality at 20 ppm [30]: 60%; mortality at 200 ppm [31]: 40%; mortality at 200 ppm [32]: 60%; pest or weed control at 200 ppm [24]: 40%
CCOC(=O)CC(SP(=S)(OC)OC)C(=O)OCC (stereo not drawn) [Malathion]	0	0	100	100	100	100	100	100	100	–	–	–	–	–	20	–	–	40	–	40	mortality at 0.02 ppm [33]: 0%; mortality at 0.2 ppm [33]: 0%; mortality at 2 ppm [33]: 100%; mortality at 20 ppm [33]: 100%; mortality at 0.02 ppm [34]: 0%; mortality at 0.2 ppm [34]: 0%; mortality at 2 ppm [34]: 100%; mortality at 20 ppm [34]: 100%; pest or weed control at 0.02 ppm [35]: 20%; mortality % 24, with TFNA-AM [36]: 0%; mortality % 48, with TFNA-AM [37]: 0%; Knock Down, with TFNA-AM [38]: 100%
CO/C=C(/C(=O)OC)c1ccccc1COc1cccc(C(F)(F)F)n1 [Picoxystrobin]	30	20	100	80	80	100	100	100	100	100	100	100	–	–	–	–	–	–	–	–	mortality % 24, without TFNA-AM [4]: 0%; mortality % 48, without TFNA-AM [5]: 0%; Knock Down, without TFNA-AM [6]: 0%; mortality % 24, without TFNA-AM [10]: 50%; mortality % 48, without TFNA-AM [11]: 0%; Knock Down, without TFNA-AM [12]: 0%; mortality % 24, without TFNA-AM [16]: 90%; mortality % 48, without TFNA-AM [17]: 100%; Knock Down, without TFNA-AM [18]: 30%; mortality % 24, without TFNA-AM [22]: 100%; mortality % 48, without TFNA-AM [23]: 100%; Knock Down, without TFNA-AM [24]: 100%
CNC(=O)Oc1ccccc1OC(C)C [Propoxur]	100	100	100	100	100	100	100	100	100	–	–	–	–	–	0	–	–	100	–	100	mortality at 0.02 ppm [33]: 0%; mortality at 0.2 ppm [33]: 100%; mortality at 2 ppm [33]: 100%; mortality at 20 ppm [33]: 100%; mortality at 0.02 ppm [34]: 0%; mortality at 0.2 ppm [34]: 100%; mortality at 2 ppm [34]: 100%; mortality at 20 ppm [34]: 100%; pest or weed control at 0.02 ppm [35]: 0%; mortality % 24, with TFNA-AM [36]: 40%; mortality % 48, with TFNA-AM [37]: 40%; Knock Down, with TFNA-AM [38]: 100%
CC(COc1ccc(Oc2ccccc2)cc1)Oc1ccccn1 (stereo not drawn) [Pyriproxyfen]	60	60	100	60	60	100	60	60	100	80	80	100	0	0	0	0	0	0	0	0	mortality at 20 ppm [30]: 0%; mortality at 200 ppm [31]: 0%; mortality at 200 ppm [32]: 0%; pest or weed control at 200 ppm [24]: 0%
CC(c1ccc(C(F)(F)F)nc1)S(C)(=O)=NC#N (stereo not drawn) [Sulfoxaflor]	0	20	100	–	–	100	–	90	100	90	100	100	0	30	0	0	60	0	70	0	mortality at 20 ppm [30]: 80%; mortality at 200 ppm [31]: 80%; mortality at 200 ppm [32]: 100%; pest or weed control at 200 ppm [24]: 20%
NC(=O)c1cnccc1C(F)(F)F [TFNA-AM, 4-(trifluoromethyl)pyridine-3-carboxamide]	–	–	–	–	–	–	–	–	–	–	–	–	–	–	–	–	–	–	–	–	mortality at 2 ppm (TFNA-AM 2 ppm alone, after 24 hours, read-out: mortality % 24, TFNA-AM alone): 18.3%; mortality at 2 ppm (TFNA-AM 2 ppm alone, after 48 hours, read-out: mortality % 48, TFNA-AM alone): 11.7%; Knock Down, TFNA-AM alone (TFNA-AM 2 ppm alone, knockdown after 1 hour): 75.5%
CCc1nn(C)c(C(=O)NCc2ccc(C(C)(C)C)cc2)c1Cl [Tebufenpyrad]	0	0	93	27	–	93	80	–	93	100	100	93	0	0	0	0	0	0	13	0	mortality at 20 ppm [30]: 20%; mortality at 200 ppm [31]: 73%; mortality at 200 ppm [32]: 67%; pest or weed control at 200 ppm [24]: 0%
